The supplement of paper PMC7840683
± gives the standard deviation of the averaged measurements.

System: HepaRG
Assay: LDH release cytotoxicity, % of total lysis control; higher = more cytotoxic
Settings: 48 h
In short: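 Single-lot HepaRG cells on collagen I-coated 96-well plates were exposed for 48 h in duplicate, in serum-free induction medium with 0.5% DMSO, to eight-point half-log series (test chemicals top 100 µM). Total lysis wells received 0.1% Triton X, and LDH leakage into 50 µL spent medium was read as resorufin fluorescence (CytoTox-ONE, Tecan Safire). Percent cytotoxicity was normalized to on-plate vehicle and total lysis controls and averaged over the duplicates.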

CN1CCN(Cc2cc(-c3ccc4nc(O)oc4c3)co2)C(c2ccc(F)cc2)C1 (stereo not given) [AVE8488]
LDH release cytotoxicity (0.03162 µM): -0.724 ± 0.27%
LDH release cytotoxicity (0.1 µM): -1.47 ± 0.17%
LDH release cytotoxicity (0.3162278 µM): -0.841 ± 0.31%
LDH release cytotoxicity (1 µM): -0.702 ± 0.13%
LDH release cytotoxicity (3.16228 µM): -1.52 ± 0.25%
LDH release cytotoxicity (10 µM): -0.46 ± 0.076%
LDH release cytotoxicity (31.6228 µM): 0.998 ± 0.15%
LDH release cytotoxicity (100 µM): 9.54 ± 0.2%

c1ccc(-c2ccccc2)cc1 [Biphenyl]
LDH release cytotoxicity (0.03162 µM): -3.64 ± 0.49%
LDH release cytotoxicity (0.1 µM): -2.69 ± 0.98%
LDH release cytotoxicity (0.3162278 µM): -2.88 ± 0.12%
LDH release cytotoxicity (1 µM): -2.22 ± 0.45%
LDH release cytotoxicity (3.16228 µM): -2.07 ± 0.53%
LDH release cytotoxicity (10 µM): -1.35 ± 0.15%
LDH release cytotoxicity (31.6228 µM): -1.49 ± 0.43%
LDH release cytotoxicity (100 µM): 0.572 ± 0.68%

COCCOCCOCCOC [Triethylene glycol dimethyl ether]
LDH release cytotoxicity (0.03162 µM): -0.0874 ± 2%
LDH release cytotoxicity (0.1 µM): -4.26 ± 1.7%
LDH release cytotoxicity (0.3162278 µM): -4.61 ± 0.24%
LDH release cytotoxicity (1 µM): -3.35 ± 0.35%
LDH release cytotoxicity (3.16228 µM): -3.81 ± 0.89%
LDH release cytotoxicity (10 µM): -3.38 ± 0.75%
LDH release cytotoxicity (31.6228 µM): -2.47 ± 1.8%
LDH release cytotoxicity (100 µM): 1.14 ± 1.8%

Clc1cccc(Cl)c1 [1,3-Dichlorobenzene]
LDH release cytotoxicity (0.03162 µM): -0.441 ± 1.9%
LDH release cytotoxicity (0.1 µM): -1.62 ± 0.022%
LDH release cytotoxicity (0.3162278 µM): -0.906 ± 0.34%
LDH release cytotoxicity (1 µM): -1.05 ± 0.054%
LDH release cytotoxicity (3.16228 µM): -1.07 ± 0.023%
LDH release cytotoxicity (10 µM): 0.199 ± 1.1%
LDH release cytotoxicity (31.6228 µM): 3.191 ± 0.028%
LDH release cytotoxicity (100 µM): 25.9 ± 0.28%

CCCCNC(=O)OCC#CI [3-Iodo-2-propynyl-N-butylcarbamate]
LDH release cytotoxicity (0.0301998 µM): 3.83 ± 0.91%
LDH release cytotoxicity (0.0955 µM): 4.17 ± 0.21%
LDH release cytotoxicity (0.301997 µM): 4.24 ± 0.97%
LDH release cytotoxicity (0.955 µM): 4.49 ± 0.11%
LDH release cytotoxicity (3.01998 µM): 4.53 ± 0.06%
LDH release cytotoxicity (9.55 µM): 4.22 ± 2%
LDH release cytotoxicity (30.199752 µM): 19.6 ± 1.1%
LDH release cytotoxicity (95.5 µM): 82.9 ± 2.8%

Cn1c(=O)c2c(ncn2C)n(C)c1=O [Caffeine]
LDH release cytotoxicity (0.03162 µM): -1.5 ± 0.32%
LDH release cytotoxicity (0.1 µM): -0.664 ± 0.51%
LDH release cytotoxicity (0.3162278 µM): -1.14 ± 0.54%
LDH release cytotoxicity (1 µM): -0.9619 ± 0.0096%
LDH release cytotoxicity (3.16228 µM): -1.02 ± 0.75%
LDH release cytotoxicity (10 µM): -0.778 ± 0.5%
LDH release cytotoxicity (31.6228 µM): -0.135 ± 0.4%
LDH release cytotoxicity (100 µM): 1.03 ± 1.2%

Cc1cc2c3c(c1)C(c1ccccc1)=NC(NC(=O)c1ccncc1)C(=O)N3CC2 (stereo not given) [CI-1018]
LDH release cytotoxicity (0.03162 µM): -1.91 ± 0.18%
LDH release cytotoxicity (0.1 µM): -1.63 ± 0.47%
LDH release cytotoxicity (0.3162278 µM): -1.51 ± 1.7%
LDH release cytotoxicity (1 µM): -2.27 ± 0.065%
LDH release cytotoxicity (3.16228 µM): -1.93 ± 0.3%
LDH release cytotoxicity (10 µM): -1.89 ± 0.24%
LDH release cytotoxicity (31.6228 µM): -2.24 ± 0.049%
LDH release cytotoxicity (100 µM): 5.94 ± 0.8%

O=[N+]([O-])c1cc(C(F)(F)F)c(Cl)c([N+](=O)[O-])c1Nc1ncc(C(F)(F)F)cc1Cl [Fluazinam]
LDH release cytotoxicity (0.03162 µM): -1.32 ± 0.49%
LDH release cytotoxicity (0.1 µM): -1.4 ± 0.42%
LDH release cytotoxicity (0.3162278 µM): -1.08 ± 0.19%
LDH release cytotoxicity (1 µM): -1.53 ± 1%
LDH release cytotoxicity (3.16228 µM): -1.12 ± 0.27%
LDH release cytotoxicity (10 µM): 0.179 ± 0.78%
LDH release cytotoxicity (31.6228 µM): 9.87 ± 2.4%
LDH release cytotoxicity (100 µM): 55.8 ± 2.7%

COC(=O)c1ccccc1O [Methyl salicylate]
LDH release cytotoxicity (0.03162 µM): -1.8 ± 0.66%
LDH release cytotoxicity (0.1 µM): -0.746 ± 1.1%
LDH release cytotoxicity (0.3162278 µM): -0.192 ± 2.3%
LDH release cytotoxicity (1 µM): -1.39 ± 0.17%
LDH release cytotoxicity (3.16228 µM): -1.33 ± 0.058%
LDH release cytotoxicity (10 µM): -0.567 ± 0.066%
LDH release cytotoxicity (31.6228 µM): -1.23 ± 0.11%
LDH release cytotoxicity (100 µM): 0.0854 ± 0.3%

Cc1cn(C2CC(N=[N+]=[N-])C(CO)O2)c(=O)nc1O (stereo not given) [3'-Azido-3'-deoxythymidine]
LDH release cytotoxicity (0.03162 µM): -0.42 ± 0.53%
LDH release cytotoxicity (0.1 µM): -0.0584 ± 0.55%
LDH release cytotoxicity (0.3162278 µM): -1.1 ± 0.81%
LDH release cytotoxicity (1 µM): -0.757 ± 0.25%
LDH release cytotoxicity (3.16228 µM): -0.57 ± 0.61%
LDH release cytotoxicity (10 µM): -0.541 ± 0.24%
LDH release cytotoxicity (31.6228 µM): -0.814 ± 0.1%
LDH release cytotoxicity (100 µM): -0.709 ± 0.47%
